Measurements reported in patent publication US9624247B2, “Pyrazolo-pyrrolidin-4-one derivatives as bet inhibitors and their use in the treatment of disease” (NOVARTIS AG, priority 2013, dated 2017).
Where two headings read alike, the source gives them in different places.

Experiments:
[1] = biological target: BRD4 (His-Brd4(44-477)) (Homo sapiens (Human), UniProt O60885); experiment: TR-FRET in-vitro binding assay for BRD4; settings: acetyl-histone H4 peptide
Experimental: (§1) TR-FRET In-Vitro Binding Assays for BRD2, BRD3, and BRD4:
(§2) All assays were performed in 384 well microtiter plates. Each assay plate contained 8-point serial dilutions for 40 test compounds, plus 16 high- and 16 low controls. Liquid handling and incubation steps were done on an Innovadyne Nanodrop Express equipped with a robotic arm (Thermo CatX, Perkin Elmer/Caliper Twister II) and an incubator (Liconic STX40, Thermo Cytomat 2C450). The assay plates were prepared by addition of 50 nl per well of compound solution in 90% DMSO HummingBird nanodispenser (Zinsser Analytic). The assay was started by stepwise addition of 4.5 μl per well of bromo domain protein (50 mM HEPES, pH 7.5, 0.005% Tween20, 0.1% BSA, 50 mM NaCl, 45 nM His-Brd2(60-472) or 45 nM His-Brd3(20-477) or 45 nM His-Brd4(44-477) all proteins produced in-house) and 4.5 μl per well of peptide solution (50 mM HEPES, pH 7.5, 0.005% Tween20, 0.1% BSA, 50 mM NaCl, 60 nM acetyl-histone H4 (AcK 5, 8, 12, 16) (Biosyntan GmbH)). Reactions were incubated at 30° C. for 35 minutes. […] After 35 minutes incubation at 30° C., plates were measured in a Perkin Elmer EnVision multilabel reader. Concentrations causing 50% inhibition (IC50 values) were determined from percent inhibition values at different compound concentrations by non-linear regression analysis.
(§3) Preparation of Compound Dilutions
(§4) Test compounds were dissolved in DMSO (10 mM) and transferred into 1.4 mL flat bottom or V-shaped Matrix tubes carrying a unique 2D matrix. The stock solutions were stored at […] if not used immediately. For the test procedure the vials were defrosted and identified by a scanner whereby a working sheet was generated that guided the subsequent working steps. Compound dilutions were made in 96 well plates. This format enabled the assay of maximally 40 individual test compounds at 8 concentrations (single points) including 4 reference compounds, if desired (known BET inhibitors from the prior art, for this and other assays of the type disclosed herein). The dilution protocol included the production of “pre-dilution plates”, “master plates” and “assay plates”.
(§5) Pre-dilution plates: 96 polypropylene well plates were used as pre-dilution plates. A total of 4 pre-dilution plates were prepared including 10 test compounds each on the plate positions A1-A10, one standard compound at A11 and one DMSO control at A12. All dilution steps were done on a HamiltonSTAR robot.
(§6) Master plates: 30 μL of individual compound dilutions including standard compound and controls of the 4 “pre-dilution plates” were transferred into a 384 “master plate” including the following concentrations 10000, 3003, 1000, 300, 100, 30, 10 and 3 μM, respectively in 90% of DMSO.
(§7) Assay plates: Identical “assay plates” were then prepared by pipetting 50 nL each of compound dilutions of the “master plates” into 384-well “assay plates” by means of a HummingBird 384-channel dispenser. These plates were used directly for the assay which was performed in a total volume of 13.55 μL. This led to a final compound concentration of 37, 11, 3.7, 1.1, 0.37, 0.11, 0.037 and 0.011 μM and a final DMSO concentration of 0.37% in the assay.

[2] = biological target: BRD2 (His-Brd2(60-472)) (Homo sapiens (Human), UniProt P25440); experiment: TR-FRET in-vitro binding assay for BRD2; settings: acetyl-histone H4 peptide
Experimental: as §1, §2, §3, §4, §5, §6, §7

[3] = biological target: BRD3 (His-Brd3(20-477)) (Homo sapiens (Human), UniProt Q15059); experiment: TR-FRET in-vitro binding assay for BRD3; settings: acetyl-histone H4 peptide
Experimental: as §1
All assays were performed in 384 well microtiter plates. Each assay plate contained 8-point serial dilutions for 40 test compounds, plus 16 high- and 16 low controls. Liquid handling and incubation steps were done on an Innovadyne Nanodrop Express equipped with a robotic arm (Thermo CatX, Perkin Elmer/Caliper Twister II) and an incubator (Liconic STX40, Thermo Cytomat 2C450). The assay plates were prepared by addition of 50 nl per well of compound solution in 90% DMSO HummingBird nanodispenser (Zinsser Analytic). […] Reactions were incubated at 30° C. for 35 minutes. […] After 35 minutes incubation at 30° C., plates were measured in a Perkin Elmer EnVision multilabel reader.
as §3, §4, §5
(§8) These plates were used directly for the assay which was performed in a total volume of 13.55 μL.

[4] = biological target: CREBBP bromodomain (His-CREBBP(1081-1197)) (Homo sapiens (Human), UniProt Q92793); experiment: AlphaScreen in-vitro binding assay for CREBBP
Experimental: AlphaScreen In-Vitro Binding Assay for CREBBP
In order to assess bromodomain selectivity, we set up a binding assay using the bromodomain encoded by the CREBBP gene. […] Reactions were incubated at 30° C. for 35 minutes. Subsequently 4.5 μl per well detection mix (50 mM HEPES, pH 7.5, 0.005% Tween20, 0.02% BSA, 150 mM NaCl, 45 μg/ml Ni-chelate acceptor beads, 45 μg/ml streptavidin-donor beads) (Perkin Elmer)) were added. After 60 minutes incubation at room temperature, plates were measured in a Perkin Elmer EnVision multilabel reader. IC50 values were determined from percent inhibition values at different compound concentrations by non-linear regression analysis.
as §3, §4, §5, §8

[5] = system: MV-4-11 cells; experiment: Cell growth inhibition assay (CellTiter-Glo), MV-4-11; assay type: cell-based, human; settings: MV-4-11, 4 days; for GI50: Homo sapiens, MV4-11, 96 h, half-maximal growth inhibition; for MV-4-11 TGI: total growth inhibition
Experimental: (§9) Cell Growth Inhibition Assay
(§10) The human leukemia cell lines MV-4-11, THP-1 and K-562 were employed to characterize the effect of BET inhibitors on cellular proliferation and viability. Cells were obtained from the American Type Culture Collection (ATCC) and cultured at 37° C. in a humidified 5% CO2 incubator in the following media: MV-4-11: DMEM high glucose (Animed #1-26F01-I), 10% FCS (Animed #2-01F26-I), 4 mM L-Glutamine (Animed #5-10K50), 1 mM Sodium Pyruvate (Animed #G03625P), lx Penicillin-Streptomycin (Animed #F12478P); K-562: Iscove's MEM (Animed #1-28F16-I), 10% FCS (Animed #2-01F26-I), 4 mM L-Glutamine (Animed #5-10K50), 1× Penicillin-Streptomycin (Animed #F12478P); THP-1: RPMI-1640 (Animed #1-41F01-I), 10% FCS (Animed #2-01F26-I), 2 mM L-Glutamine (Animed #5-10K50), 10 mM HEPES (Animed #5-31F100), 1 mM Sodium Pyruvate (Animed #G03625P), 1× Penicillin-Streptomycin (Animed #F12478P). The AML lines MV-4-11 and THP-1 are very sensitive to BET inhibitors and show massive cell death upon BET inhibition (Zuber et al., Nature, 478 (2011), 524-8). Compound-mediated suppression of cell proliferation/viability was assessed by quantification of cellular ATP levels using the CellTiter-Glo (CTG) reagent (Promega). Briefly, cells were seeded in 20 μl fresh medium into 384-well plates, followed by addition of 5 μl medium containing compound dilutions at 5-fold their final intended concentration. Dose-response effects were assessed by 3-fold serial dilutions of the test compound, starting at 10 μM. Following incubation of the cells for 4 days at 37° C. and 5% CO2, the effect of inhibitors on cell viability was quantified following addition of 20 μl CTG and luminescence quantification (integration time: 100 ms) as per vendor manual, using a correspondingly equipped Tecan M200 multi-mode platereader (TECAN, Switzerland). For data analysis, the assay background value determined in wells containing medium, but no cells, was subtracted from all data points. To enable differentiation of cytotoxic from cytostatic compounds, the number of viable cells is assessed relative to that observed at the time of compound addition using a separate cell plate (day 0). The effect of a particular test compound concentration on cell proliferation/viability is expressed as percentage of the background- and day 0-corrected luminescence reading obtained for cells treated with vehicle only (DMSO, 0.1% final concentration), which is set as 100%, whereas that luminescence reading for wells containing medium is set as −100%. Compound concentrations leading to half-maximal (IC50) and total growth inhibition (TGI) were determined using standard four parameter curve fitting.

[6] = system: THP-1 cells; experiment: Cell growth inhibition assay (CellTiter-Glo), THP-1; assay type: cell-based, human; settings: THP-1, 4 days; for GI50: Homo sapiens, 96 h, half-maximal growth inhibition; for THP-1 TGI: total growth inhibition
Experimental: as §9, §10

[7] = system: K-562 cells; experiment: Cell growth inhibition assay (CellTiter-Glo), K-562; assay type: cell-based, human; settings: K-562, 4 days; for GI50: Homo sapiens, K562, 96 h, half-maximal growth inhibition; for K-562 TGI: total growth inhibition
Experimental: as §9, §10

Sequence of BRD2 (His-Brd2(60-472)) (P25440 60-472): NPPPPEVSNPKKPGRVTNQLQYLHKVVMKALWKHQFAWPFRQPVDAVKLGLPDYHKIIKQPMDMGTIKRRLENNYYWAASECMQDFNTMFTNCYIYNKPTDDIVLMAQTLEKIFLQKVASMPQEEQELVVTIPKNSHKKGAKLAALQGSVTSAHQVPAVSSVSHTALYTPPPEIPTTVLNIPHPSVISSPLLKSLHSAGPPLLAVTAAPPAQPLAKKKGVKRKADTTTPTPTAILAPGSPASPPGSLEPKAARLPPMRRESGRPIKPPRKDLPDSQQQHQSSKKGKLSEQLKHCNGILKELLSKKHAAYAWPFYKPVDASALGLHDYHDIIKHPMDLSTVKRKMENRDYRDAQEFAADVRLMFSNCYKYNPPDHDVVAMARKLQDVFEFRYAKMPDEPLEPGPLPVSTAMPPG
Sequence of CREBBP bromodomain (His-CREBBP(1081-1197)) (Q92793 1081-1197): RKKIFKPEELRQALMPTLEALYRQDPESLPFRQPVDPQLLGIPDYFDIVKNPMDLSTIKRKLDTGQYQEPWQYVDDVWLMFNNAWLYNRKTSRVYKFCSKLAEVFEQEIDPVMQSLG
Sequence of BRD3 (His-Brd3(20-477)) (Q15059 20-477): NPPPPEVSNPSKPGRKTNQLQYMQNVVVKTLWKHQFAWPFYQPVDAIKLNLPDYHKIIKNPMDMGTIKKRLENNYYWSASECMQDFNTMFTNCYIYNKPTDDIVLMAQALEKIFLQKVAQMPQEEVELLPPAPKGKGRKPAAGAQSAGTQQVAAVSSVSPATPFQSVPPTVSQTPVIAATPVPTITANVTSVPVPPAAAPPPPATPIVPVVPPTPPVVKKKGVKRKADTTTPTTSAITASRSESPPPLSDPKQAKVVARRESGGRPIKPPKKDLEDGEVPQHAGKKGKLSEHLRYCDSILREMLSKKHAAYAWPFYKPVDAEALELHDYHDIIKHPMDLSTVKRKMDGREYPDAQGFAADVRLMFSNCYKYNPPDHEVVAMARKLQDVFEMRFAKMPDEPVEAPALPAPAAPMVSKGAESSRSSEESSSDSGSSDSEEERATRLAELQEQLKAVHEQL

Structure (SMILES): COc1cc(N2C(=O)c3c(C4CC4)nn(C)c3C2c2ccc(Cl)cc2)cn2c(C(F)F)nnc12 (centres unmarked) [Example 22, 6-(4-chlorophenyl)-3-cyclopropyl-5-(3-(difluoromethyl)-8-methoxy-[1,2,4]triazolo-[4,3-a]pyridin-6-yl)-1-methyl-5,6-dihydropyrrolo[3,4-c]pyrazol-4(1H)-one]
- IC50 [1]: 130 nM
- IC50 [2]: 210 nM
- IC50 [3]: 230 nM
- IC50 ([4]; AlphaScreen, acetyl-histone H4 peptide, read-out: CREBBP IC50): > 37 µM
- GI50 [5]: 266 nM
- MV-4-11 TGI [5]: 0.574 µM
- GI50 [6]: 814 nM
- THP-1 TGI [6]: 1.33 µM
- GI50 [7]: 1180 nM
- K-562 TGI [7]: >10 µM

Structure (SMILES): COc1ncccc1-c1n[nH]c2c1C(=O)N(c1cc(C)c3nnc(C)n3c1)C2c1ccc(Cl)cc1 (centres unmarked) [Example 10, 6-(4-chlorophenyl)-5-(3,8-dimethyl-[1,2,4]triazolo[4,3-a]pyridin-6-yl)-3-(2-methoxypyridin-3-yl)-5,6-dihydropyrrolo[3,4-c]pyrazol-4(1H)-one]
- IC50 [1]: 30 nM
- IC50 [2]: 48 nM
- IC50 [3]: 45 nM
- IC50 [4]: > 37 µM
- GI50 [5]: 34.5 nM
- MV-4-11 TGI [5]: 0.0643 µM
- GI50 [6]: 60.4 nM
- THP-1 TGI [6]: 0.1368 µM
- GI50 [7]: 135 nM
- K-562 TGI [7]: >10 µM
